Data taken from patent publication US20160166676A1 (priority 2013, published 2016).

How the values were obtained:
[1] = test system: CTLL-2 cells; format: cell-based
[2] = biological target: STING deletion mutant DN5 (162-N) (Homo sapiens, UniProt Q86WV6); format: binding
STING deletion mutant DN5 (162-N), sequence (Q86WV6 162-379, stated change not applied): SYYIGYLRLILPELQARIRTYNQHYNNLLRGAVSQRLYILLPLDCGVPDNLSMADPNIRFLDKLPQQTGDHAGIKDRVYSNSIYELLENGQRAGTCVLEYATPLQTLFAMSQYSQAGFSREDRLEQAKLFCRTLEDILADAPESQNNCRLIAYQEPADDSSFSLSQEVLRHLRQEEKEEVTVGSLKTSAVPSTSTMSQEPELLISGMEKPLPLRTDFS

## GLFGAIAGFIENGWEGCGGEKEKEK [IN F#2 dimer]
[1]
  proliferation of CTLL-2 cells: inhibits the proliferation of CTLL-2 cells
[2]
  pulldown of STING deletion mutant DN5 (162-N) by biotinylated peptide: readily pulled down
